From patent publication US10738119B2, “Combination therapy for hepatocellular carcinoma” (Health Research, Inc., priority 2014, dated 2020)
Entries after “also recorded” stand apart in the source; their conditions may differ.

Columns and labels:
Type in all cases: in vivo, human
HCC patients [1] = experiment: PD-1 status and survival of HCC patients treated with sorafenib (Example 2)
Description: The individual data points in the figures represent each patient.

PD-1+ T cells = experiment: Multi-parametric flow cytometry of PD-1+ T cells in PBMC of HCC patients pre and post sorafenib treatment; details: pre vs post sorafenib
Method: (§1) FACS analysis was performed to measure peripheral blood Treg frequency using APC-H7 anti-CD3, V450 anti-CD4, PE anti-CD127, PE-Cy5 anti-CTLA-4 (BD Biosciences) and PE-Cy7 anti-PD-1, Alexa488 anti-Foxp3 (Biolegend). Detection of surface GARP levels was achieved by using mouse anti-human GARP (Enzo Life Sciences) followed by staining with PE F(ab′)2 goat anti-mouse IgG (Jackson ImmunoResearch Laboratories). Cells were incubated with normal mouse IgG for 10 min prior to surface and intracellular staining. Intracellular analysis for Foxp3 and CTLA-4 was performed after fixation and permeabilization of cells using intracellular staining kit (eBioscience) according to manufacturer's instructions. All samples were acquired on LSRII flow cytometer (BD Biosciences) and analyzed using Flowjo Model Fit (Tree Star).
(§2) Plasma levels of both pro-inflammatory and immunosuppressive cytokines were determined by ELISA.
This study was approved by institutional review board of Roswell Park Cancer Institute (RPCI), Buffalo, N.Y. and informed consent was obtained from all participants.
(§3) PBMCs were isolated immediately by Ficoll-Paque Plus density gradient centrifugation and cryopreserved. Plasma was isolated and stored at −80° C. and used for measurement of immunosuppressive and immunostimulatory cytokines as described previously. Frequency, phenotype and functionality of immune cells after blocking immune check points were analyzed by multi-parameter flow cytometry.

Foxp3+ Tregs = experiment: Multi-parametric flow cytometry of Tregs in PBMC of HCC patients pre and post sorafenib treatment; details: pre vs post sorafenib
Method: as §1, §2
(§4) This study was approved by institutional review board of Roswell Park Cancer Institute (RPCI), Buffalo, N.Y. and informed consent was obtained from all participants. Heparinized peripheral blood samples were obtained from HCC patients before the initiation of sorafenib treatment and after four weeks or more of oral sorafenib treatment, through Data Bank and Biorepository at RPCI.
as §3

CD11b+CD33+ MDSC = experiment: Multi-parametric flow cytometry of MDSC in PBMC of HCC patients pre and post sorafenib treatment; details: pre vs post sorafenib
Method: MDSC in the peripheral blood were detected using FITC anti-CD11b (eBioscience), PE-Cy5 anti-CD33, APC anti-CD14, V450 anti-HLA-DR (BD Biosciences).
as §2, §4, §3

IL-10 = experiment: Plasma cytokine ELISA pre and post sorafenib treatment: IL-10; details: pre vs post sorafenib
Method: (§5) Plasma isolated during PBMC separation was assayed to quantify the level of IFN-γ, IL-10, and TGF-β1 using specific ELISA kits according to the manufacturer's instructions (eBioscience).
as §2, §4, §3

TGF-β1 = experiment: Plasma cytokine ELISA pre and post sorafenib treatment: TGF-β1; details: pre vs post sorafenib
Method: as §5, §2, §4, §3

IFN-γ = experiment: Plasma cytokine ELISA pre and post sorafenib treatment: IFN-γ; details: pre vs post sorafenib
Method: as §5, §2, §4, §3

IL-1β = experiment: Plasma cytokine ELISA pre and post sorafenib treatment: IL-1β; details: pre vs post sorafenib, P<0.11, FIG. 17A
Method: as §5, §2, §4, §3

HCC patients [2] = experiment: Overall survival of HCC patients stratified by greater or smaller decrease in immune parameters after sorafenib treatment
Method: FIGS. 15A-15D. […] Overall survival of patients was calculated based on the status of (FIG. 15A) absolute numbers of CD4^+PD-1^+ T cells (FIG. 15B) CD8^+PD-1^+ T cells (FIG. 15C) expression levels of PD-1 (MFI) on CD8^+ T cells (FIG. 15D) absolute numbers of CD4^+Foxp3^+ T cells.
FIGS. 18A-18R. […] Overall survival of patients was calculated based on the status of (FIG. 18A) frequency of CD4^+Foxp3^+ Tregs (FIG. 18B) frequency of GARP^+Foxp3^+ Tregs (FIG. 18C) expression levels of GARP (MFI) on Foxp3^+ Tregs (FIG. 18D) frequency of CTLA-4^+Foxp3^+ Tregs (FIG. 18E) absolute number of CD4^+Foxp3^+ Tregs (FIG. 18F) expression levels of CTLA-4 (MFI) on Foxp3^+ Tregs (FIG. 18G) frequency of CD11b^+CD33^+ MDSC (FIG. 18H) absolute number of CD11b^+CD33^+ MDSC (FIG. 18I) frequency of CD4^+PD-1^+ T cells (FIG. 18J) expression levels of PD-1 (MFI) on CD4^+ T cells (FIG. 18K) frequency of Foxp3^+PD-1^+ T cells (FIG. 18L) absolute number of Foxp3^+PD-1^+ T cells (FIG. 18M) expression levels of PD-1 (MFI) on Foxp3^+CD4^+ T cells (FIG. 18N) frequency of CD8^+PD-1^+ T cells (FIG. 18O) IL-10 (FIG. 18P) TGF-β1 (FIG. 18Q) IFN-γ (FIG. 18R) IL-1β.
as §2, §4

HCC patients [3] = experiment: as above; details: log-rank P<0.30, FIG. 18E

Which mean survival time (HCC patients [1]; group where PD-1 was decreased) does the source give for `CNC(=O)c1cc(Oc2ccc(NC(=O)Nc3ccc(Cl)c(C(F)(F)F)c3)cc2)ccn1` [sorafenib] here?
Its mean survival time is 688 days.

What about the mean survival (HCC patients [1]; group which did not show a decrease in PD-1) of the same compound?
The mean survival was 168 days.

And the “95% CI of change in expression levels (MFI) of PD-1 on CD4+ T cells after sorafenib treatment” value (PD-1+ T cells; FIG. 14B)?
The value was −56.51 to −12.09 MFI.

What about the “expression levels (MFI) of PD-1 on CD4+ T cells after sorafenib treatment” value (PD-1+ T cells; P<0.02, FIG. 14B) of the same compound?
The value was “significantly decreased”.

What about the “absolute number of CD4+Foxp3+PD-1+ T cells after sorafenib treatment” value (PD-1+ T cells; P<0.04, FIG. 14C) of the same compound?
The value was “significantly decreased”.

What about the “absolute number of CD8+PD-1+ T cells after sorafenib treatment” value (PD-1+ T cells; P<0.15, FIG. 14E) of the same compound?
The value was “did not show any significant decrease”.

And the “frequency of CD8+PD-1+ T cells after sorafenib treatment” value (PD-1+ T cells; P<0.20, FIG. 14D)?
The value was “did not show any significant decrease”.

What about the “level of expression of PD-1 on CD8+ T cells (MFI) after sorafenib treatment” value (PD-1+ T cells; P<0.31, FIG. 14F) of the same compound?
Its value is “did not show any significant decrease”.

And the “frequency of CD4+PD-1+ T cell after sorafenib treatment” value (PD-1+ T cells; n=19, P<0.01, FIG. 14A)?
Its value is “significantly reduced”.

And the “95% CI of change in frequency of CD3+CD4+Foxp3+ Tregs after sorafenib treatment” value (Foxp3+ Tregs; FIG. 16A)?
Its value is −0.44 to −1.16.

What about the “95% CI of change in absolute numbers of CD3+CD4+Foxp3+ Tregs after sorafenib treatment” value (Foxp3+ Tregs; FIG. 16B) of the same compound?
Its value is −9.48 to −3.55.

And the “95% CI of change in frequency of Foxp3+CTLA-4+ Tregs after sorafenib treatment” value (Foxp3+ Tregs; FIG. 16C)?
Its value is −3.18 to −0.82.

What about the “95% CI of change in absolute number of Foxp3+CTLA-4+ Tregs after sorafenib treatment” value (Foxp3+ Tregs; FIG. 16D) of the same compound?
Its value is −8.42 to −6.32.

And the “frequency of CD3+CD4+Foxp3+ Tregs after sorafenib treatment” value (Foxp3+ Tregs; P<0.02, FIG. 16A)?
Its value is “significant decrease”.

What about the “frequency of Foxp3+CTLA-4+ Tregs after sorafenib treatment” value (Foxp3+ Tregs; P<0.02, FIG. 16C) of the same compound?
The value was “Marked reduction”.

And the “absolute numbers of CD3+CD4+Foxp3+ Tregs after sorafenib treatment” value (Foxp3+ Tregs; P<0.05, FIG. 16B)?
Its value is “significant decrease”.

What about the “absolute number of Foxp3+CTLA-4+ Tregs after sorafenib treatment” value (Foxp3+ Tregs; P<0.05, FIG. 16D) of the same compound?
Its value is “Marked reduction”.

What about the “frequency of CD11b+CD33+ MDSC after sorafenib treatment” value (CD11b+CD33+ MDSC; P<0.61, FIG. 16E) of the same compound?
Its value is “did not significantly impact; also recorded: did not have any significant influence”.

And the “absolute number of CD11b+CD33+ MDSC after sorafenib treatment” value (CD11b+CD33+ MDSC; P<0.92, FIG. 16F)?
Its value is “did not significantly impact; also recorded: did not have any significant influence”.

And the “95% CI of change in levels of IL-10 after sorafenib treatment” value (IL-10; FIG. 17B)?
Its value is −63.30 to −4.9.

And the “plasma levels of IL-10 after sorafenib treatment” value (IL-10; P<0.03, FIG. 17B)?
The value was “significant decrease”.

And the “95% CI of change in levels of TGF-β1 after sorafenib treatment” value (TGF-β1; FIG. 17C)?
The value was −151.50 to −48.55.

What about the “plasma levels of TGF-β1 after sorafenib treatment” value (TGF-β1; P<0.03, FIG. 17C) of the same compound?
Its value is “significant decrease”.

What about the “95% CI of change in levels of IFN-γ after sorafenib treatment” value (IFN-γ; FIG. 17D) of the same compound?
The value was −1.07 to 23.64.

What about the “plasma levels of IFN-γ after sorafenib treatment” value (IFN-γ; P<0.04, FIG. 17D) of the same compound?
Its value is “concomitant increase; also recorded: significantly increased”.

And the “plasma levels of IL-1β after sorafenib treatment” value (IL-1β)?
Its value is “did not show any significant decrease”.

And the “overall survival, greater decrease in PD-1 expression levels on CD4+ T cells after sorafenib” value (HCC patients [2]; AFT models, AFT β P<0.04)?
The value was “better overall survival benefit”.

And the “overall survival, greater decrease in absolute number of MDSC after sorafenib” value (HCC patients [2]; AFT models, AFT β P<0.05)?
The value was “better prognosis; also recorded: significant correlation with overall survival”.

And the “overall survival, greater decrease in percentage of MDSC after sorafenib” value (HCC patients [2]; AFT models, AFT β P<0.05)?
The value was “better prognosis; also recorded: significant correlation with overall survival”.

And the “overall survival vs absolute numbers of Foxp3+ Tregs post-sorafenib treatment” value (HCC patients [2]; log-rank P<0.01, FIG. 15D)?
The value was “statistically significant improvement in overall survival; also recorded: significant correlation with overall survival”.

And the “overall survival, greater vs smaller decrease in absolute number of PD-1+CD4+ T cells after sorafenib” value (HCC patients [2]; log-rank P<0.04, FIG. 15A)?
Its value is “significant interaction term; also recorded: significantly improved overall survival rate”.

And the “overall survival, greater vs smaller decrease in absolute number of CD8+PD-1+ T cells after sorafenib” value (HCC patients [2]; log-rank P<0.04, FIG. 15B)?
Its value is “significant interaction term; also recorded: significant improvement in overall survival”.

And the “overall survival, greater vs smaller decrease in PD-1 expression levels on CD8+ T cells after sorafenib” value (HCC patients [2]; log-rank P<0.04, FIG. 15C)?
Its value is “significant improvement in overall survival”.

What about the “overall survival, greater vs smaller decrease in frequency of CTLA-4+ Tregs after sorafenib” value (HCC patients [2]; log-rank P<0.51, FIG. 18D) of the same compound?
Its value is “no significant differences in the overall survival”.

And the “overall survival vs changes in levels of TGF-β1 after sorafenib” value (HCC patients [2]; log-rank P<0.61, FIG. 18P)?
The value was “none of these cytokines showed any significant association; also recorded: non-significant interaction term”.

What about the “overall survival vs changes in levels of IFN-γ after sorafenib” value (HCC patients [2]; log-rank P<0.62, FIG. 18Q) of the same compound?
Its value is “none of these cytokines showed any significant association; also recorded: non-significant interaction term”.

What about the “overall survival vs changes in levels of IL-10 after sorafenib” value (HCC patients [2]; log-rank P<0.73, FIG. 18O) of the same compound?
The value was “none of these cytokines showed any significant association; also recorded: non-significant interaction term”.

What about the “overall survival vs changes in levels of IL-1β after sorafenib” value (HCC patients [2]; log-rank P<0.92, FIG. 18R) of the same compound?
The value was “non-significant interaction term”.

And the “overall survival, greater vs smaller decrease in absolute number of CTLA-4+ Tregs after sorafenib” value (HCC patients [3])?
Its value is “no significant differences in the overall survival”.
